These results are taken from US20260048051A1, “TREATMENT OF INFLAMMATORY BOWEL DISEASE” (Atomwise Inc., priority 2024, published 2026).

One data set can be described thus: Mouse colon distribution. Particulars: colon / plasma, read-out: Colon/Plasma Ratio at 12 h. The class given is in vivo.
For data set [1], the system named is IFNα/pSTAT5. As to the kind of experiment: Whole blood potency (IFNα/pSTAT5), human. Particulars: CD4+ T cells, read-out: Cellular Whole Blood Potency IC50 (IFNα/pSTAT5), Human. It is filed as cell-based. The protocol: Heparinized human whole blood (5 different donors) was acquired from the Stanford Blood Center and used fresh for each experiment. Whole blood was plated (90 μl per well) into a 96-well assay plate immediately prior to initiation of the assay.
Test compounds were diluted serially (3-fold) in DMSO to generate a series of 10 concentrations (at 200× final assay concentrations). […] DMSO dilutions were diluted 10-fold in PBS to generate 20× final assay concentrations.
Pre-incubation of compounds and whole blood was initiated by adding 5 μl of the compound dilutions to the assay plates and incubated for 30 min at 37° C. Blood was then stimulated by the addition of IFN-α (5 μl of 200 ng/ml) (Miltenyi #130-093-873) followed by incubation at 37° C. for 15 min. Assays were terminated by the addition of Lyse/Fix (BD Biosciences #558049) (60 μl treated blood+1 ml Lyse/Fix) and incubated for 10 min. Cells were diluted 1:1 with Wash Buffer (PBS+0.3% BSA) and centrifuged to pellet white blood cells. Fixed cells were washed once with Wash Buffer and the pelleted cell plate was frozen at −80° C.
Cells were thawed and washed once with Wash Buffer prior to the addition of the α-CD3-Blue520 antibody (2 μg/ml final concentration; Biolegend #300481) and incubated for 30 min. Cells were washed twice in Wash Buffer followed by permeabilization in 100% cold methanol for 15 min. Cells were washed three times in Wash Buffer prior to the addition of the α-CD4-APC antibody ([…] final concentration; Biolegend #300514) and the α-pSTAT5-PE antibody (0.67 μg/ml final concentration; Biolegend #936904) and incubated for 90 min. Cells were washed twice in Wash Buffer and resuspended in 90 μl Wash Buffer prior to running on a LSRII flow cytometer (BD Biosciences, San Jose, CA). Total T cells (CD3+) and CD4+ cells were gated, and the Mean Fluorescence Intensity (MFI) was determined from the PE channel to quantify pSTAT5 signal.
The pSTAT5 MFI in the CD4+ gate was used to calculated Activity (% Control):
Data were then analyzed by non-linear regression to determine inhibitory potencies […] using the following equation in Collaborative Drug Discovery (Burlingame, CA): […]
where X: log concentration in Molar; Y: Activity (% Control); Top: curve top plateau; Bottom: curve bottom plateau, fixed range from −20-20%; Hill Slope: unconstrained. Potency data are reported as pIC50 or pIC90 values ±SD. IC90 values are defined from the fitted IC50 values: […]. FIG. 5A.
(§1) Exemplary compounds of the invention, compounds 1 and 2 were compared in this assay.

A further data set concerns Caco-2 cells. As to the kind of experiment: Caco-2 permeability. The class given is in vitro ADME. The protocol: (§2) Caco-2 cells were cultured for 21 days on a Transwell 96-well plate. The basal plate for changing the media was prepared by filling all wells of a 96-well sterile plate with 200 μL of Caco-2 media and placing it into an incubator. The apical section of the plate was lifted and lowered onto an empty basal plate. From the apical compartments containing 115 μL of cell media, 85 μL of the cell culture media was aspirated and replaced with 85 μL of fresh cell culture media. The basal plate was removed from the incubator and placed into a cell culture hood, while the apical section of the plate was returned to the basal plate and placed into the incubator.
(§3) Cells were fed one or two days prior to assay. A fresh basal plate was prepared by adding 200 μL of cell media to all wells and placing the plate in an incubator. The plate was then transferred from the incubator to the cell culture hood, where the apical compartment was lifted and placed onto an empty basal plate. 85 μL of media was removed from the apical wells and replaced with 85 μL of fresh media. The apical compartment of the plate was transferred to a basal plate and returned to the incubator.
(§4) On the day of the assay, 1 mL of 500-fold diluted compound solution was prepared in transport buffer. 62.5 μl of the prepared solution was used for the apical compartment, while 130 μl was used in the basal compartment. TEER measurements of the plate were taken. The dilutions were incubated for 15 minutes at 37° C. Basal assay plates were prepared by filling A→B wells of a 96-well sterile plate with 250 μl of transport buffer or B→A wells with 130 μl of diluted compound/control and 130 μl of HBSS and mixing 6-10 times with a multichannel pipette. 10 μl of samples were then collected form the basal compartments of the B→A wells for TO into the Quench Plates (shallow polypropylene plate, leaving 250 μl in each well). The basal assay plates were then placed into the incubator until use. The Caco-2 plate was placed in the hood and the apical section was lifted and placed onto an empty basal plate. 85 μl of the Caco-2 media was removed from the apical compartments containing 115 μl of cell culture media and replaced with 85 μl of fresh transport media. This was repeated twice for a total of 3 washes. 52.5 μl of buffer was then removed from the apical wells of the Caco-2 ready plates (leaving 62.5 μl buffer in the wells) and replaced with 62.5 of the diluted compound or control for the A→B wells or 52.5 μl of fresh transport buffer for the B→A wells. The total volume in the apical wells was assumed to be 125 μl for A→B and 115 μl for B→A. The apical wells were gently mixed 2-3 times with a multichannel pipette set to 50 μl and 10 μl of sample was collected from the apical compartments of A→B wells for TO into the TO Quench plates (shallow polypropylene plate). The total volume in all apical wells was 115 μl. The basal plate was removed from the incubator and transferred to the apical section of the basal plate and returned to the incubator. The TO samples were then diluted with 40 μl of transport buffer and 100 μl of quench solution was added. The cells were then kept cold. At T 2 hrs, 10 μl of sample was collected from all apical compartments and B→A basal compartments. 50 μl of sample was collected from the A→B compartments. The collected 10 μl of sample was then diluted with 40 μl of transport buffer. 100 μl of quench solution was then added to all T 2 hrs samples. After mixing, 50 μl of all TO and T 2 hrs samples were transferred to sample plates and diluted with 100 μl MilliQ water for bioanalysis. Final TEER measurements were taken after the completion of the assay.

The nature of a further data set: Caco-2 permeability. It is filed as in vitro ADME. Particulars: human, Caco-2. How it is done:
as §2, §3, §4

Data set [2] deals with IFNα/pSTAT5. Briefly: Whole blood potency (IFNα/pSTAT5), mouse. The class given is cell-based. The note with it: read-out: Cellular Whole Blood Potency IC50 (IFNα/pSTAT5), Mouse.
Description: as §1

Read-outs that look alike come from different tables or passages of the source.

The term Papp A→B denotes the apparent permeability from the apical to the basolateral side of a cell layer. A lower Papp A→B goes with slow passage. Usually efflux ratio stands for the permeability from basolateral to apical divided by that in the opposite direction, in the common usage.

`C[C@@H](c1ccc(Nc2cc(Nc3ncccc3S(C)(=O)=O)ncn2)nc1)N1CC2(COC2)C1` [Compound 1, (S)—N^4-(5-(1-(2-oxa-6-azaspiro[3.3]heptan-6-yl)ethyl)pyridin-2-yl)-N^6-(3-(methylsulfonyl)pyridin-2-yl)pyrimidine-4,6-diamine]: the Kp at 12 h was 50 in the data set “Mouse colon distribution” (PO 10 mg/kg), 33 in the data set “Mouse colon distribution” (PO 50 mg/kg) and 25 in the data set “Mouse colon distribution” (PO 200 mg/kg). In addition, the IC50 with IFNα/pSTAT5 [1] is 29.1 nM; with IFNα/pSTAT5 [1] (Homo sapiens, CD4+ T) it was ~15.8 nM; with IFNα/pSTAT5 [2], 116 nM. The “Caco-2 Papp, A-B” value in the data set on Caco-2 cells amounted to 6.02 ×10⁻⁶ cm/s. Also, the Papp A→B at 2 h in the data set “Caco-2 permeability” is ~6.02 ×10⁻⁶ cm/s. In addition, the efflux ratio at 2 h in “Caco-2 permeability” was 1.38.

`C[C@@H](c1ccc(Nc2cc(Nc3ncc(F)cc3S(C)(=O)=O)ncn2)nc1)N1CC2(COC2)C1` [Compound 2, (S)—N^4-(5-(1-(2-oxa-6-azaspiro[3.3]heptan-6-yl)ethyl)pyridin-2-yl)-N^6-(5-fluoro-3-(methylsulfonyl)pyridin-2-yl)pyrimidine-4,6-diamine]: the Kp at 12 h in “Mouse colon distribution” (PO 10 mg/kg) amounted to 24; in the data set “Mouse colon distribution” (PO 50 mg/kg), 13; in “Mouse colon distribution” (PO 200 mg/kg) it was 7.4. Moreover, the IC50 in the data set on IFNα/pSTAT5 [1] is 15.8 nM; in the data set on IFNα/pSTAT5 [1] (Homo sapiens, CD4+ T) it was ~29 nM; in the data set on IFNα/pSTAT5 [2], 64.3 nM. Besides, the “Caco-2 Papp, A-B” value in the data set on Caco-2 cells was 7.51 ×10⁻⁶ cm/s. For the same compound, the Papp A→B at 2 h in “Caco-2 permeability” is ~7.2 ×10⁻⁶ cm/s. The efflux ratio at 2 h in “Caco-2 permeability” was determined as 2.2.
